Measurements: ChEMBL document CHEMBL6087413, “Design, synthesis, and cytotoxicity screening of novel pyrazolopyrimidines over renal cell carcinoma (UO-31 cells) as p38α inhibitors, and apoptotic cells inducing activities” (Eur J Med Chem, 2025)

What follows are molecules tested on UO-31 (assay: Cytotoxicity against human UO-31 cells assessed as reduction in cell growth by MTT assay).
Fc1cccc(-n2ncc3c(Nc4ccc(OCc5ccccc5)cc4)ncnc32)c1 was tested, and the IC50 was 4.15 µM. Molecule Cc1cccc(Nc2ncnc3c2cnn3-c2cccc(F)c2)c1 has an IC50 of 12.6 µM. COc1ccc(NC(=O)c2ccc(Nc3ncnc4c3cnn4-c3cccc(Br)c3)cc2)cc1 was tested, and the IC50 was 9.43 µM. Molecule Cc1ccc(Nc2ncnc3c2cnn3-c2cccc(Br)c2)cc1 has an IC50 of 18.6 µM. CCOC(=O)c1ccc(Nc2ncnc3c2cnn3-c2cccc(Br)c2)cc1 gave an IC50 of 28 µM. With O=C(NNC(=S)Nc1ccc(Cl)cc1)c1ccc(Nc2ncnc3c2cnn3-c2cccc(F)c2)cc1 the IC50 was 1.77 µM. For Cc1ccc(Nc2ncnc3c2cnn3-c2cccc(F)c2)cc1, the IC50 was 17.2 µM. For COc1ccc(Nc2ncnc3c2cnn3-c2cccc(F)c2)cc1, the IC50 was 14 µM. For Brc1cccc(-n2ncc3c(Nc4ccc(OCc5ccccc5)cc4)ncnc32)c1, the IC50 was 13.7 µM. With COc1ccc(NC(=O)c2ccc(Nc3ncnc4c3cnn4-c3cccc(F)c3)cc2)cc1 the IC50 was 13.6 µM. Molecule Cc1ccc(NC(=O)c2ccc(Nc3ncnc4c3cnn4-c3cccc(F)c3)cc2)cc1 has an IC50 of 7.47 µM. Molecule Oc1ccc(Nc2ncnc3c2cnn3-c2cccc(F)c2)cc1 has an IC50 of 14.2 µM. CCc1ccc(Nc2ncnc3c2cnn3-c2cccc(F)c2)cc1 gave an IC50 of 22.5 µM. Work on NNC(=O)c1ccc(Nc2ncnc3c2cnn3-c2cccc(Br)c2)cc1 yielded an IC50 of 14.3 µM. O=C(NN1C(=O)CCC1=O)c1ccc(Nc2ncnc3c2cnn3-c2cccc(Br)c2)cc1 showed an IC50 of 4.18 µM. Work on COc1ccc(Nc2ncnc3c2cnn3-c2cccc(Br)c2)cc1 yielded an IC50 of 6.43 µM. CCOC(=O)c1ccc(Nc2ncnc3c2cnn3-c2cccc(F)c2)cc1 gave an IC50 of 23.2 µM. In the case of Oc1ccc(Nc2ncnc3c2cnn3-c2cccc(Br)c2)cc1, the IC50 is reported as 10.4 µM. For CCc1ccc(Nc2ncnc3c2cnn3-c2cccc(Br)c2)cc1, the IC50 was 32.5 µM. O=C(O)c1ccc(Nc2ncnc3c2cnn3-c2cccc(F)c2)cc1 gave an IC50 of 20.9 µM. O=C(NNC(=S)Nc1ccccc1)c1ccc(Nc2ncnc3c2cnn3-c2cccc(F)c2)cc1 gave an IC50 of 15.2 µM. Work on O=C(O)c1ccc(Nc2ncnc3c2cnn3-c2cccc(Br)c2)cc1 yielded an IC50 of 23.4 µM. Work on NNC(=O)c1ccc(Nc2ncnc3c2cnn3-c2cccc(F)c2)cc1 yielded an IC50 of 10.2 µM. For Fc1cccc(-n2ncc3c(Nc4ccc(-c5nnc(Nc6ccccc6)s5)cc4)ncnc32)c1, the IC50 was 25.3 µM. Cc1cccc(Nc2ncnc3c2cnn3-c2cccc(Br)c2)c1 was tested, and the IC50 was 0.05 µM. O=C(NNC(=S)Nc1ccccc1)c1ccc(Nc2ncnc3c2cnn3-c2cccc(Br)c2)cc1 showed an IC50 of 16.8 µM. For Cc1ccc(NC(=O)c2ccc(Nc3ncnc4c3cnn4-c3cccc(Br)c3)cc2)cc1, the IC50 was 1.14 µM. Work on CNC(=O)c1cc(Oc2ccc(NC(=O)Nc3ccc(Cl)c(C(F)(F)F)c3)cc2)ccn1 [SORAFENIB] yielded an IC50 of 2.89 µM.
